Test results reported in US20240228458A1, “PYRIMIDINE DERIVATIVE HAVING PROTEIN KINASE INHIBITORY ACTIVITY, AND THERAPEUTIC PHARMACEUTICAL COMPOSITION COMPRISING SAME” (THERAPEX CO., LTD., priority 2021, published 2024).

Legend:
Format in all cases: cell-based
[1] = test system: Ba/F3 cells expressing L858R/T790M (EGFR-LT); experiment: Growth inhibition (GI50) of Ba/F3 cells expressing L858R/T790M (EGFR-LT), Celltiter glo; settings: Mus musculus, BaF3, 72 h
Protocol: (§1) In this experimental example, a determination was made as to whether the compounds prepared in Examples 1-283 have the ability to inhibit the growth of Ba/F3 cells expressing EGFR-wt, del19/T790M/C797S (EGFR-DTC), L858R/T790M/C797S (EGFR-LTC), del19/T790M (EGFR-DT), and L858R/T790M (EGFR-LT) variants.
(§2) The parental Ba/F3 cell line is a population of cells that are not introduced with EGFR variants. Specifically, 100 μl of a cell line expressing each variant was plated in a 96-well plate at a density of 100,000 cells/ml. 10-point, 4-fold serial dilutions of each compound were prepared, starting at 2 mM. After 4 h, 0.5 μl of the compound (0.5% DMSO) was added, followed by incubation at 37° C. and 5% CO2 for 72 h. After incubation, the number of viable cells was measured using a Celltiter glo assay kit (Promega) and the GI50 of the compound was determined. The term “GI50” refers to the molar concentration (μM) of the compound required for 50% growth inhibition of cells.

[2] = test system: Ba/F3 cells expressing L858R/T790M/C797S (EGFR-LTC); experiment: Growth inhibition (GI50) of Ba/F3 cells expressing L858R/T790M/C797S (EGFR-LTC), Celltiter glo; settings: Mus musculus, BaF3, 72 h
How it was run: (§3)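 Viability read by CellTiter-Glo after 72 h compound exposure (37 °C, 5% CO2) of variant-expressing Ba/F3 cells plated at 100,000 cells/ml. Dosing 4 h post-seeding; 10-pt 4-fold series from 2 mM stock; 0.5% DMSO. GI50 = molar concentration (μM) giving half-maximal growth inhibition.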

[3] = test system: Ba/F3 cells expressing EGFR-wt; experiment: Growth inhibition (GI50) of Ba/F3 cells expressing EGFR-wt, Celltiter glo; settings: Mus musculus, BaF3, 72 h
How it was run: as §3

[4] = test system: parental Ba/F3 cell line; experiment: Growth inhibition (GI50) of the parental Ba/F3 cell line (not introduced with EGFR variants), Celltiter glo; settings: Mus musculus, BaF3, 72 h, parental Ba/F3 cells
How it was run: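 Viable cell count by CellTiter-Glo after 72 h at 37 °C gave GI50 values (μM, 50% growth inhibition). Cells lacking EGFR variants were seeded at 100,000 cells/ml and dosed 4 h later with 4-fold serial dilutions from a 2 mM stock, 0.5% DMSO.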

[5] = test system: Ba/F3 cells expressing del19/T790M (EGFR-DT); experiment: Growth inhibition (GI50) of Ba/F3 cells expressing del19/T790M (EGFR-DT), Celltiter glo; settings: Mus musculus, BaF3, 72 h
Protocol: as §1, §2

[6] = test system: Ba/F3 cells expressing del19/T790M/C797S (EGFR-DTC); experiment: Growth inhibition (GI50) of Ba/F3 cells expressing del19/T790M/C797S (EGFR-DTC), Celltiter glo; settings: Mus musculus, BaF3, 72 h
How it was run: as §3

SMILES	GI50 [1] [nM]	GI50 [2] [nM]	GI50 [3] [nM]	GI50 [4] [nM]	GI50 [5] [nM]	GI50 [6] [nM]
COc1nc(N2CCS(=O)(=O)CC2)ccc1Nc1ncc(Cl)c(Nc2ccccc2NS(C)(=O)=O)n1 [Example 6]	500 to 2000	500 to 2000	500 to 2000	> 10000	500 to 2000	500 to 2000
COc1nc(N2CCC(N3CCN(C)CC3)CC2)c(C)cc1Nc1ncc(Cl)c(Nc2ccc(F)cc2NS(C)(=O)=O)n1 [Example 15, N-(2-((5-chloro-2-((2-methoxy-5-methyl-6-(4-(4-methylpiperazin-1-yl)piperidin-1-yl)pyridin-3-yl)amino)pyrimidin-4-yl)amino)-5-fluorophenyl)methanesulfonamide]	100 to 500	100 to 500	500 to 2000	500 to 2000	1 to 25	100 to 500
COc1nc(N2CCN(CCO)CC2)ccc1Nc1ncc(Cl)c(Nc2ccc(F)cc2NS(C)(=O)=O)n1 [Example 18]	500 to 2000	500 to 2000	25 to 100	100 to 500	500 to 2000	500 to 2000
COc1nc(N2CCN(C(C)=O)CC2)ccc1Nc1ncc(Cl)c(Nc2ccc(F)cc2NS(C)(=O)=O)n1 [Example 19, N-(2-((2-((6-(4-acetylpiperazin-1-yl)-2-methoxypyridin-3-yl)amino)-5-chloropyrimidin-4-yl)amino)-5-fluorophenyl)methanesulfonamide]	500 to 2000	500 to 2000	500 to 2000	2000 to 10000	500 to 2000	500 to 2000
COc1nc(N2C[C@@H](C)N(C)[C@@H](C)C2)ccc1Nc1ncc(Cl)c(Nc2ccc(F)cc2NS(C)(=O)=O)n1 [Example 20, N-(2-((5-chloro-2-((2-methoxy-6-((3S,5R)-3,4,5-trimethylpiperazin-1-yl)pyridin-3-yl)amino)pyrimidin-4-yl)amino)-5-fluorophenyl)methanesulfonamide]	500 to 2000	500 to 2000	2000 to 10000	2000 to 10000	500 to 2000	500 to 2000
COc1nc(N2CCC(O)CC2)ccc1Nc1ncc(Cl)c(Nc2ccc(F)cc2NS(C)(=O)=O)n1 [Example 21, N-(2-((5-chloro-((6-(4-hydroxypiperidin-1-yl)-2-methoxypyridin-3-yl)amino)pyrimidin-4-yl)amino)-5-fluorophenyl)methanesulfonamide]	2000 to 10000	500 to 2000	2000 to 10000	> 10000	500 to 2000	500 to 2000
COc1nc(N2CCN(C3COC3)CC2)ccc1Nc1ncc(Cl)c(Nc2ccc(F)cc2NS(C)(=O)=O)n1 [Example 22, N-(2-((5-chloro-2-((2-methoxy-6-(4-(oxetan-3-yl)piperazin-1-yl)pyridin-3-yl)amino)pyrimidin-4-yl)amino)-5-fluorophenyl)methanesulfonamide]	2000 to 10000	500 to 2000	2000 to 10000	500 to 2000	25 to 100	500 to 2000
COc1nc(N2CCC(N(C)C)C2)ccc1Nc1ncc(Cl)c(Nc2ccc(F)cc2NS(C)(=O)=O)n1 (centres unmarked) [Example 23, N-(2-((5-chloro-2-((6-(3-(dimethylamino)pyrrolidin-1-yl)-2-methoxypyridin-3-yl)amino)pyrimidin-4-yl)amino)-5-fluorophenyl)methanesulfonamide]	500 to 2000	100 to 500	100 to 500	100 to 500	100 to 500	100 to 500
COc1cc(N2CCC(N3CCCN(C)CC3)CC2)c(C)cc1Nc1ncc(Br)c(Nc2ccc(F)cc2NS(C)(=O)=O)n1 [Example 38, N-(2-((5-bromo-2-((2-methoxy-5-methyl-4-(4-(4-methyl-1,4-diazepan-1-yl)piperidin-1-yl)phenyl)amino)pyrimidin-4-yl)amino)-5-fluorophenyl)methanesulfonamide]	100 to 500	25 to 100	100 to 500	500 to 2000	25 to 100	25 to 100
COc1cc(N2CCC(N3CCCC(N(C)C)C3)CC2)c(C)cc1Nc1ncc(Br)c(Nc2ccc(F)cc2NS(C)(=O)=O)n1 (centres unmarked) [Example 39, N-(2-((5-bromo-2-((4-(3-(dimethylamino)-[1,4′-bipiperidin]-1′-yl)-2-methoxy-5-methylphenyl)amino)pyrimidin-4-yl)amino)-5-fluorophenyl)methanesulfonamide]	25 to 100	1 to 25	100 to 500	500 to 2000	100 to 500	1 to 25
Cc1cc(Nc2ncc(Br)c(Nc3ccc(F)cc3NS(C)(=O)=O)n2)c(Cl)cc1N1CCC(N2CCCN(C)CC2)CC1 [Example 44, N-(2-((5-bromo-2-((2-chloro-5-methyl-4-(4-(4-methyl-1,4-diazepan-1-yl)piperidin-1-yl)phenyl)amino)pyrimidin-4-yl)amino)-5-fluorophenyl)methanesulfonamide]	100 to 500	25 to 100	500 to 2000	500 to 2000	25 to 100	25 to 100
Cc1cc(Nc2ncc(Br)c(Nc3ccc(F)cc3NS(C)(=O)=O)n2)c(Cl)cc1N1CCC(N2CCCC(N(C)C)C2)CC1 (centres unmarked) [Example 45]	100 to 500	25 to 100	500 to 2000	500 to 2000	25 to 100	25 to 100
CNS(=O)(=O)c1ccccc1Nc1nc(Nc2ccc(N3CCN(CCO)CC3)nc2OC)ncc1Cl [Example 56, 2-((5-chloro-2-((6-(4-(2-hydroxyethyl)piperazin-1-yl)-2-methoxypyridin-3-yl)amino)pyrimidin-4-yl)amino)-N-methylbenzenesulfonamide]	500 to 2000	500 to 2000	500 to 2000	2000 to 10000	100 to 500	500 to 2000
CNS(=O)(=O)c1ccccc1Nc1nc(Nc2ccc(N3CCC(N(C)C)C3)nc2OC)ncc1Cl (centres unmarked) [Example 57, 2-((5-chloro-2-((6-(3-(dimethylamino)pyrrolidin-1-yl)-2-methoxypyridin-3-yl)amino)pyrimidin-4-yl)amino)-N-methylbenzenesulfonamide]	500 to 2000	500 to 2000	500 to 2000	500 to 2000	100 to 500	500 to 2000
CNS(=O)(=O)c1ccccc1Nc1nc(Nc2cc(C)c(N3CCC(N4CCN(C)CC4)CC3)nc2OC)ncc1Cl [Example 58, 2-((5-chloro-2-((2-methoxy-5-methyl-6-(4-(4-methylpiperazin-1-yl)piperidin-1-yl)pyridin-3-yl)amino)pyrimidin-4-yl)amino)-N-methylbenzenesulfonamide]	500 to 2000	100 to 500	100 to 500	100 to 500	100 to 500	100 to 500
COc1cc(N2CCC(N3CCN(C)CC3)CC2)c(Cl)cc1Nc1ncc(Cl)c(Nc2cc(Cl)ccc2NS(C)(=O)=O)n1 [Example 151, N-(4-chloro-2-((5-chloro-2-((5-chloro-2-methoxy-4-(4-(4-methylpiperazin-1-yl)piperidin-1-yl)phenyl)amino)pyrimidin-4-yl)amino)phenyl)methanesulfonamide]	1 to 25	1 to 25	100 to 500	–	1 to 25	1 to 25
